Several values for one entry are separate records, joined by “and”; a condition that tells them apart may be missing. Identical values can stand only once.
Columns and labels:
[1] = system: PTLD-like B cell lines 20A, A1, A2D6, and LCL; test: cell cycle progression by propidium iodide flow cytometry; assay type: cell-based, human; conditions: 48 hours
Description: The cell lines to be examined were cultured with several concentrations of SDZ RAD (0 to 10 nanomolar) for 24-48 hours. The cells were washed with DPBS and stain solution (pH 7.2) containing 3% PEG 6000, 50 micrograms per milliliter DNA fluorochrome propidium iodide (PI; Calbiochem, San Diego, Calif.), annexin V-FITC as described (Douglas et al., 1998, Cytometry 32:57-65) 0.1% (v/v) TRITON™ X (Sigma, St. Louis, Mo.), 4 millimolar citrate buffer pH 7.8, and 360 units per milliliter RNase A (Worthington Biochemicals, Freehold, N.J.) for 30 minutes at 37 C. Next, salt solution pH 7.2 (3% w/v PEG 6000, PI 50 micrograms per milliliter, 0.1% v/v TRITON™ X, and 0.4 molar NaCl) was added, and the cells were incubated at 4° C. in the dark for 1 hour before flow cytometry analysis was performed, as described (Douglas et al., 1998, Cytometry 32:57-65; Kawamata et al., 1998, Blood 91:561-569; Pepper et al., 1998, Leuk. Res. 22:439-444).
Rapamycin and, presumably, O-alkylated rapamycin derivatives such as SDZ RAD, block cell cycle progression at the early stage in normal T cells (Terada et al., 1993, J. Cell Physiol. 154:7-15; Flanagan et al., 1993, Ann. N.Y. Acad. Sci. 696:31-37). […] The effect was drug dose and cell-line type dependent. […] Percentages of cells in the later phases of the cell cycle (G2-M and S) were diminished proportionally. A1 and, to a lesser degree, A2D6 cell line were particularly sensitive to SDZ RAD. Four EBV^+ B-cell lines were cultured for 48 hours with 0-10 nanomolar SDZ RAD, labeled with propidium iodine, and analyzed by flow cytometry.

15A tumors = test: inhibition of tumor establishment in SCID mice; assay type: in vivo
Description: (§1) Establishment and passaging of the xenotransplanted tumors was performed as described (Douglas et al., 1998, Cytometry 32:57-65; Kawamata et al., 1998, Blood 91:561-569; Pepper et al., 1998, Leuk. Res. 22:439-444). To deplete macrophages and NK cells and to enhance tumor engraftment, SCID mice were injected intraperitoneally with 30-45 milligrams per kilogram of etoposide (Bedford Laboratories, Bedford, Ohio) 4 days prior to implantation of the human EBV^+ B-cell lines (Visonneau et al., 1998, Am. J. Path. 152:1299-1311). Ten million cells of each line employed (see results) were inoculated into mice either intraperitoneally or subcutaneously in 200 microliters of Dulbecco's Phosphate Buffered Saline (DPBS; BioWhittaker, Walkersville, Md.). Ascites or palpable subcutaneous tumors developed 3-5 weeks after cell injection.
(§2) Tumor treatment and growth inhibition experiments were performed using fragments of the established subcutaneous tumors (Pasqualucci et al., 1995, Blood 85:2139-2146, Visonneau et al., 1998, Am. J. Path. 152:1299-1311). For this purpose, mice were anesthetized with KETALAR™ (ketamine, Parke-Davis, Morris Plains, N.J.) by intraperitoneal injection of 100 milligrams per kilogram. Next, the primary tumor was aseptically removed and freed from necrotic, fatty and connective tissue and divided into small pieces of roughly equal size and 3-4 pieces per mouse were injected subcutaneously. Treatment of established tumors with SDZ RAD was started when tumors reached 5 millimeters diameter. In growth inhibition experiments, the treatment was initiated 3 days prior to the tumor implantation. Tumor volume in all experiments was determined from the equation: volume=0.4ab^2, where a and b designate respectively long and short diameter of the tumor. The transplanted mice were monitored for tumor growth for a period of up to 2 months. Five milligrams per kilogram of SDZ RAD was administered once a day by gavage as described (Schuurman et al., 1997, Transplantation 64:32-5; Schuler et al. 1997, Transplantation 64:36-42).
(§3) Mice were sacrificed by exposure to FORANE™ (isoflurane, Ohmeda, Liberty Place, N.J.) on day 29 in the drug toxicity study, on day 40-55 in the tumor growth inhibition study or when tumors achieved approximately 2 centimeter diameter, or when ulceration of the skin, signs of severe respiratory distress, weakness, or lethargy appeared. Complete autopsy was performed on all mice at the end of the study regardless of their appearance. Tumor and internal organs (spleen, liver, lung, heart, kidney, small and large intestines, femoral bone for bone marrow) were fixed in 10% (v/v) formalin, embedded in paraffin, cut into […] sections, transferred to glass slides, and stained with hematoxylin and eosin. Representative tumor fragments were stained immunohistochemically by standard streptavidin-biotin complex technique using commercially available reagents (Research Genetics, Huntsville, Ala.), antibodies: anti-CD20 (L-26) and LMP-1 (both from DAKO, Carpinteria, Calif.) and Ki67 (mib1; Immunotech, Westbrook, Me.). EBV-encoded RNA (EBER-1), and detected using commercially available reagents.
(§4) Because SDZ RAD, when used as an immunosuppressive agent, is administered chronically to transplant patients, its main therapeutic impact on PTLDs may be to inhibit their development rather than to alleviate the clinically symptomatic cases. To test if SDZ RAD can inhibit establishment of PTLD-like lymphomas, daily treatment with 5 milligrams per kilogram body weight of the drug was initiated 3 days prior to the tumor implantation. […] On day 25, the treated tumors measured in average 38 cubic millimeters, the untreated approximately 1940 cubic millimeters. On day 45, the median volume of the treated tumor was 480 cubic millimeters. In 20A tumors, 6 out of 11 tumors were not detectable on day 25; the median volume of the remaining 5 was 20 cubic millimeters. The average untreated tumor measured 210 cubic millimeters on that day. […]

20A tumors = test: inhibition of tumor establishment in SCID mice; assay type: in vivo
Description: as §1, §2, §3, §4

A1 tumors = test: inhibition of tumor establishment in SCID mice; assay type: in vivo
Description: as §1, §2, §3, §4

[2] = system: HTLV-I (+) T-cell lines ATL-2, C10MJ2, HUT102B; conditions: Zhang et al., 1999, Leukemia Res. 23:373-384; cited from earlier work
[3] = day 25, treatment from 3 days prior to implantation

With `CO[C@H]1C[C@@H]2CC[C@@H](C)[C@@](O)(O2)C(=O)C(=O)N2CCCC[C@H]2C(=O)O[C@H]([C@H](C)C[C@@H]2CC[C@@H](OCCO)[C@H](OC)C2)CC(=O)[C@H](C)/C=C(\C)[C@@H](O)[C@@H](OC)C(=O)[C@H](C)C[C@H](C)/C=C/C=C/C=C/1C` [SDZ RAD, 40-O-(2-hydroxy)ethyl-rapamycin] the “cell cycle progression at the early, G0/G1 phase” value ([1]; all 4 cell lines, 0-10 nanomolar) was “markedly inhibited”, the “increase in the percentage of cells in G0/G1” value ([1]; highest dose 10 nanomolar) was 10-70% and the “increase in the percentage of cells in G0/G1” value ([1]; low doses 1-2 nanomolar) was 5-25. For the same compound, the “effect on tumor growth and establishment” value (15A tumors; 5 milligrams per kilogram body weight daily, initiated 3 days prior to tumor implantation) was “profoundly delayed the tumor growth, but was unable to inhibit the tumor establishment”, the “average treated tumor volume” value (15A tumors; [3]) was 38 cubic millimeters and the “median volume of the treated tumor” value (15A tumors; day 45, treatment from 3 days prior to implantation) was 480 cubic millimeters. For the same compound, the “treated mice with no signs of tumor (establishment completely inhibited)” value (20A tumors; 11 treated mice, microscopic evaluation revealed no malignant cells) was “Five and 5/11”, the “median volume of the remaining 5 tumors” value (20A tumors; day 25) was 20 cubic millimeters and the tumors not detectable (20A tumors; [3]) was 6 out of 11. For the same compound, the “volume of treated tumors (none exceeded)” value (20A tumors; day 45) was no more than 150 cubic millimeters, the “tumor detection in the 8 treated mice” value (A1 tumors; day 29, treatment from 3 days prior to implantation) was “no tumor could be detected” and the “mice with no evidence of tumor (establishment completely inhibited)” value (A1 tumors; day 53, 8 treated mice) was 5 and 5/8. The “mice with small, histologically confirmed lymphomas” value (A1 tumors; day 53, 8 treated mice) was 3, the “volume of the small lymphomas” value (A1 tumors; day 53, the 3 mice with lymphoma) was less than 5 cubic millimeters and the “response of cell lines to the drug” value [2] was “non-responsive”.

Reference: patent publication US8778961B2, “O-methylated rapamycin derivatives for alleviation and inhibition of lymphoproliferative disorders” (The Trustees of the University of Pennsylvania, priority 2000, dated 2014)
